Results: patent US20220023279A1, “COMPOSITIONS FOR TREATMENT OF SYMPHYSIOLYSIS” (priority 2018, published 2022)
Counter-ions that a name gives are not always drawn.

Columns and labels:
[1] = test system: patient suffering from symphysiolysis; experiment: Example 1: subcutaneous local anesthetic to the inguinal region, pregnant patient with symphysiolysis confined to a wheelchair; type: in vivo, human; settings: each side of inguinal region
Method: A patient weighing about 60 kilograms had previously suffered from a car accident with injury to their left leg, resulting in complex regional pain syndrome. Walking was impaired, and crutches were required for mobility. During pregnancy, they were diagnosed with symphysiolysis and they were confined to a wheelchair as they were unable to ambulate using crutches.
The treatment lasted for one hour. After one hour, additional Bupivacaine HCl was administered, 0.5% of an amount of 5 ml, diluted in 5 ml of saline solution to each side of the inguinal region.
Before and after the administration ultrasound to test fetal pulse was performed to confirm that there was a fetal pulse. The patient was directed to perform fetal monitoring on the day after the administration.

[2] = test system: patient suffering from symphysiolysis; experiment: Example 3: subcutaneous lidocaine and bupivacaine to the inguinal region, person in 31st week of pregnancy with symphysiolysis; type: in vivo, human
Source text: A person, weighing about 60 kilograms, in their 20th week complained of groin pains which spread to their right leg. They had difficulty walking and appeared to be dragging their right leg. Upon examination, no sensitivity in symphysis pubis joint was evident. Sensitivity was noticeable at the right sacroiliac joint. Reducing physical activity was recommended by the physician.
(§1) After about six weeks, the patient returned with noticeable sensitivity at the left sacroiliac joint, and some sensitivity at the right sacroiliac joint. Painkillers and orthopedic stabilization of the hip were recommended. NSAIDs were prescribed to be used until the 31st week. The patient had symptoms of symphysiolysis in the 29th week which were relieved using NSAID therapy (diclofenac sodium).
During the 31st week, the patient felt an increase in symphysiolysis. […] The patient complained of temporary paralysis during walking, difficulty sleeping and difficulty sitting because of pain in the groin and back areas. Subcutaneous anesthesia to the inguinal region was recommended. A fetal ultrasound was performed, and fetal movement and pulse were both satisfactory.
The patient was injected, subcutaneously in the inguinal region with 1% lidocaine.
Two days post lidocaine treatment, the patient felt increased pain, and paresthesia in the legs. […] Twenty minutes after the lidocaine administration, the patient received bupivacaine, 0.5%, in an amount of 5 ml to both sides (not diluted with saline), via subcutaneous administration to the inguinal region. […] The patient reported fatigue.

[3] = test system: patient suffering from symphysiolysis; experiment: Example 3: NSAID therapy of symphysiolysis symptoms in the 29th week of pregnancy; type: in vivo, human
Source text: as §1

[4] = test system: patient suffering from symphysiolysis; settings: 5 ml lidocaine HCl 1%, subcutaneous, both sides
Source text: They were recommended to perform orthopedic support, physical therapy and to medicate with oral paracetamol and dipyrone for pain management. Bedrest was recommended.
At 35 weeks they felt an increase in the severity of symphysiolysis. They used orthopedic support methods which were not sufficient to relieve the symptoms. They had considered inducing labor and using a walker to enhance mobility.

`CCCCN1CCCCC1C(=O)Nc1c(C)cccc1C` (centres unmarked) [Bupivacaine HCl] was tested, and the “additional duration of mobility” value ([1]; Bupivacaine HCl 0.5%, 5 ml diluted in 5 ml saline, given one hour after lidocaine HCl) was “nine”.

For `CCCCN1CCCCC1C(=O)Nc1c(C)cccc1C` (centres unmarked) [Bupivacaine], the pain level ([2]; five hours after lidocaine, bupivacaine 0.5%, 5 ml both sides, given twenty minutes after lidocaine) was “further improvement in pain level”, the “pain, walking and walking speed” value ([2]; three hours after lidocaine, bupivacaine 0.5%, 5 ml both sides undiluted, subcutaneous, given twenty minutes after lidocaine) was “significant improvement in walking, decrease in pain, and increase in walking speed” and the “side effect reported by the patient” value ([2]; three hours after lidocaine, bupivacaine 0.5%, 5 ml both sides, given twenty minutes after lidocaine) was “fatigue”.

`CCN(CC)CC(=O)Nc1c(C)cccc1C` [Lidocaine] was tested, and the pain and walking ([2]; 5 minutes after second treatment, 1 ml lidocaine 1% without saline, subcutaneous, both sides) was “improvement in walking, but pain still remained”, the back pains ([2]; 20 hours after first treatment, 1% lidocaine subcutaneous in inguinal region) was “back pains returned, but to a lesser extent than before the treatment” and the sleeping ([2]; night after first treatment, 1% lidocaine subcutaneous in inguinal region) was “greatly improved”. For the same molecule, the pain and walking ([2]; six hours after first treatment, 1% lidocaine subcutaneous in inguinal region) was “less of an influence of the anesthetic, but still felt that walking was better than before the treatment”, the pain and walking ([2]; ten minutes after second treatment, 1 ml lidocaine 1% without saline, subcutaneous, both sides) was “able to walk without pain and did not feel back pain” and the pain and walking ([2]; three hours after first treatment, 1% lidocaine subcutaneous in inguinal region) was “improvement in pain and in walking but still felt minor freezing of gait”.

For `O=C(O)Cc1ccccc1Nc1c(Cl)cccc1Cl` [diclofenac sodium], the “symptoms of symphysiolysis under NSAID therapy” value [3] was “relieved”.

With `CCN(CC)CC(=O)Nc1c(C)cccc1C` [lidocaine HCl] the “patient condition after administration (standing, pain, need of wheelchair)” value ([1]; lidocaine HCl 1%, 5 ml diluted with 5 ml saline, subcutaneous) was “able to stand without pain and no longer required a wheelchair”, the “side effects reported by the patient after the treatment” value [4] was “slight dizziness and occasionally heat rate increases” and the “ability to climb stairs” value ([4]; after 30 minutes) was “able climb stairs without significant pain”. The “pain in hip joint which had limited walking” value ([4]; after 30 minutes) was “significantly reduced”, the “relief of symphysiolysis symptoms” value ([4]; after 30 minutes) was “significant relief” and the “sharp pain in the left groin area” value ([4]; after 30 minutes) was “disappeared”.
